Data: patent US11439618B2, “Compositions and methods for lowering triglycerides” (Amarin Pharmaceuticals Ireland Limited, priority 2009, dated 2022)

System: subjects with Age-Associated Memory Impairment
Assay: CDR computerized cognitive test battery, 6-week study in Age-Associated Memory Impairment
Format: in vivo, human
Conditions: for Quality of Episodic Secondary Memory, LS mean difference vs placebo: overall; for Self-Rated Contentment, ANCOVA: p<0.001
Protocol: A single-center, 6-week, double-blind, randomizes, parallel-group, placebo-controlled, dose-ranging pilot study was performed to evaluate the efficacy, tolerability, and safety of >96% ethyl-EPA in subjects with subjective and objective memory impairment according to generally accepted criteria for Age-Associated Memory Impairment (“AAMI”). The primary objective of the study was to determine the effect of >96% ethyl-EPA 1 g, 2 g, and 4 g daily, compared to placebo, on cognitive performance in subjects with AAMI.
The population for this study was men and women between ages 50 and 70 with self-reported complaints of memory loss, subjective and objective cognitive impairment with a score of at least one standard deviation below that of the mean for age-matched elderly population as determined by the total score of between 13 and 20 from the Paired Associated Learning (“PAL”) subset of the Wechsler Memory Scale, evidence of adequate intellectual function as determined by a scaled score of at least 9 (raw score of at least 32) on the Vocabulary subtest of the Wechsler Adult Intelligence Scale and absence of dementia as determined by a score of 24 or higher on the Mini-Mental State Examination (“MMSE”).
Ninety-four subjects were randomized into one of six groups: 1 g E-EPA daily (n=23), 2 g E-EPA daily (n=24), 4 g E-EPA daily (n=24), 1 g placebo daily (n=7), 2 g placebo daily (n=8), and 4 g placebo daily (n=8). E-EPA was provided as 500 mg soft gel capsules containing >96% E-EPA and 0.2% dl-α-tocopherol as an antioxidant. Placebo capsules contained 467 mg of liquid paraffin and 0.2% dl-a-tocopherol. Ninety-one subjects completed the study. Two subjects in the 2 g E-EPA group and one subject in the 2 g placebo group discontinued the study.
The study consisted of a screening visit, a training visit, and four study visits. At the screening visit, subjects' eligibility was determined through cognitive tests (verbal paired associated learning [PAL] subscale, vocabulary subtest, Memory Assessment Clinics Questionnaire [MAC-Q], mini mental state evaluation [MMSE] and MINI [mini international neuropsychiatric interview; sections 1 and 2 of Diagnostic and Statistical Manual of Mental Disorders, 4th Edition (DSM-IV) plus dysthymia]), haematology, clinical chemistry and 12-lead electrocardiogram (ECG). At the training visit, subjects were shown how to use the CDR computerized system. Subjects took study drug for 6 weeks and on Days 0, 14, 28 and 42, subjects underwent the CDR cognitive test battery.
A selection of tasks from the CDR computerized cognitive assessment system were administered at Visit 2 (training visit), Visit 3 (baseline), Visit 4 (Day 14), Visit 5 (Day 28) and Visit 6 (Day 42). Parallel forms of the tests were presented at each testing session. All tasks were computer-controlled, the information presented on high resolution monitors, and the responses recorded via a response model containing two buttons: one marked ‘no’ and the other ‘yes’. Five CDR composite scores were used as the primary/secondary outcome variables. The task titles were: • Word Presentation • Immediate Word Recall • Picture Presentation • Simple Reaction Time • Digit Vigilance • Choice Reaction Time • Spatial Working Memory • Numeric Working Memory • Delayed Word Recall • Word Recognition • Picture Recognition • Bond-Lader Visual Analogue Scales of Mood and Alertness • Screen, Using the Computer Mouse
Summary statistics were provided for the ITT and Study Per Protocol Populations separately for all composite scores, major and supportive variables. Summary statistics were performed for both the unadjusted and difference from baseline data (i.e. the difference from the time matched predose assessments on Day 0). Summary statistics were calculated by treatment, day and time-point. The summary statistics comprised n, mean, median, SD, standard error of mean (“SEM”), minimum and maximum values. […]

With `CC/C=C\C/C=C\C/C=C\C/C=C\C/C=C\CCCC(=O)OCC` [Ethyl-EPA, all-cis eicosa-5,8,11,14,17-pentaenoic acid ethyl ester] the “Continuity of Attention and Digit Vigilance Targets Detected, effect of treatment” value (ITT) was “no statistically significant effect of treatment”, the “Immediate and Delayed Word Recall Accuracies, Word and Picture Recognition Sensitivity Indices, effect of treatment” value (ITT) was “no statistically significant effects of treatment” and the “Quality of Episodic Secondary Memory, effect of treatment” value (ITT) was “no statistically significant effect of treatment”. The “Self-Rated Alertness, effect of treatment” value (ITT) was “no statistically significant effect of treatment”, the “Self-Rated Calmness, effect of treatment” value (ITT) was “no statistically significant effect of treatment” and the “Self-Rated Contentment, LS mean difference to placebo” value (ITT) was “no statistically significant effects”. For the same compound, the “Simple Reaction Time and Digit Vigilance Speed, effect of treatment” value (ITT) was “no statistically significant effects of treatment”, the “Speed of Memory and subtasks Spatial and Numeric Working Memory Speeds, Word and Picture Recognition Speeds, effect of treatment” value (ITT) was “no statistically significant effects of treatment” and the “Power of Attention, effect of treatment” value (ITT, 1, 2, 4 g daily vs placebo, ANCOVA) was “no statistically significant effect of treatment”. For the same compound, the “Immediate Word Recall Accuracy, LS mean difference vs placebo” value (ITT, 1 g, Day 14, p=0.028) was “statistically significant decreases”, the “Picture Recognition Speed, difference vs placebo” value (ITT, 1 g, Day 14 at AM 2, p=0.084) was “trends for benefits” and the “Immediate Word Recall Accuracy, LS mean difference vs placebo” value (ITT, 1 g, Day 14 at PM 2, p=0.020) was “statistically significant decreases”. For the same compound, the “Word Recognition Sensitivity Index, LS mean difference vs placebo” value (ITT, 1 g, Day 28, p=0.024) was “statistically significant decreases”, the “Picture Recognition Speed, difference vs placebo” value (ITT, 1 g, Day 28 at AM 1, p=0.085) was “trends for benefits” and the “Picture Recognition Sensitivity Index, LS mean difference vs placebo” value (ITT, 1 g, Day 28 at AM 2, p=0.017) was “statistically significant decrease”. The “Picture Recognition Sensitivity Index, LS mean difference vs placebo” value (ITT, 1 g, Day 28 at PM 2, p=0.040) was “statistically significant decrease”, the “Immediate Word Recall Accuracy, LS mean difference vs placebo” value (ITT, 1 g, at AM 1, p=0.040) was “statistically significant decreases” and the “Quality of Episodic Secondary Memory, LS mean difference vs placebo” value (from here on “Quality … LS mean difference vs placebo”) (ITT, 1 g, p=0.040) was “statistically significant decreases”. The “Immediate Word Recall Accuracy, LS mean difference vs placebo” value (ITT, 2 g, Day 28, p=0.017) was “statistically significant decreases”, the “Self-Rated Alertness, LS mean difference vs placebo” value (ITT, 2 g, Day 28, p=0.047) was “statistically significant decrease in ratings” and the “Immediate Word Recall Accuracy, LS mean difference vs placebo” value (ITT, 2 g, Day 28 at AM 1, p=0.006) was “statistically significant decreases”. The “Self-Rated Alertness, LS mean difference vs placebo” value (ITT, 2 g, Day 28 at AM 2, p=0.041) was “statistically significant decrease in ratings”, the “Immediate Word Recall Accuracy, LS mean difference vs placebo” value (ITT, 2 g, at AM 1, p=0.028) was “statistically significant decreases” and the “Quality … LS mean difference vs placebo” value (ITT, 2 g, p=0.035) was “statistically significant decreases”. The “Spatial Working Memory Speed, LS mean difference vs placebo” value (ITT, 4 g, Day 14 at PM 1, p=0.048) was “statistically significant benefit”, the “Word Recognition Sensitivity Index, LS mean difference vs placebo” value (ITT, 4 g, Day 28 at PM 2, p=0.030) was “statistically significant decrease” and the “Word Recognition Sensitivity Index, LS mean difference vs placebo” value (ITT, 4 g, Day 42, p=0.038) was “statistically significant decreases”. The “Spatial Working Memory Speed, LS mean difference vs placebo” value (ITT, 4 g, Day 42 at AM 1, p=0.061) was “trend for a benefit”, the “Word Recognition Sensitivity Index, LS mean difference vs placebo” value (ITT, 4 g, at PM 2, p=0.045) was “statistically significant decrease” and the “Power of Attention, LS mean difference active treatment vs placebo” value (ITT, any time-point) was “no LS mean difference”. For the same compound, the “Self-Rated Contentment, ANCOVA” value (ITT) was “statistically significant treatment by day interaction”, the “Choice Reaction Time, ANCOVA” value (ITT, p=0.011) was “statistically significant treatment by day interaction” and the “Spatial Working Memory Sensitivity Index, ANCOVA” value (ITT, p=0.015) was “statistically significant treatment by day interaction”. For the same compound, the “Quality of Working Memory, ANCOVA” value (ITT, p=0.019) was “statistically significant treatment by day interaction”, the “Numeric Working Memory Sensitivity Index, ANCOVA” value (ITT, p=0.089) was “statistical trend for a treatment by day interaction” and the “Continuity of Attention, effect of treatment” value (Study Per Protocol) was “no statistically significant effect of treatment”. For the same compound, the “Digit Vigilance Targets Detected, ANCOVA” value (Study Per Protocol, p=0.040) was “statistically significant treatment by time-point interaction”, the “Immediate and Delayed Word Recall Accuracies, Word and Picture Recognition Sensitivity Indices, effect of treatment” value (Study Per-Protocol) was “no statistically significant effects of treatment” and the “Power of Attention, effect of treatment” value (Study Per-Protocol) was “no statistically significant effect of treatment”. The “Quality of Episodic Secondary Memory, effect of treatment” value (Study Per-Protocol) was “no statistically significant effects of treatment”, the “Self-Rated Alertness, effect of treatment” value (Study Per-Protocol) was “no statistically significant effect of treatment” and the “Self-Rated Calmness, effect of treatment” value (Study Per-Protocol) was “no statistically significant effect of treatment”. For the same compound, the “Self-Rated Contentment, LS mean difference to placebo” value (Study Per-Protocol) was “no statistically significant effects”, the “Simple Reaction Time and Digit Vigilance Speed, effect of treatment” value (Study Per-Protocol) was “no statistically significant effects of treatment” and the “Speed of Memory and subtasks Spatial and Numeric Working Memory Speed, Word and Picture Recognition Speed, effect of treatment” value (Study Per-Protocol) was “no statistical significant effects of treatment”. For the same compound, the “Immediate Word Recall Accuracy, LS mean difference to placebo” value (Study Per-Protocol, 1 g, Day 14, p=0.024) was “statistically significant decreases”, the “Immediate Word Recall Accuracy, LS mean difference to placebo” value (Study Per-Protocol, 1 g, Day 14 at PM 2, p=0.019) was “statistically significant decreases” and the “Word Recognition Sensitivity Index, LS mean difference to placebo” value (Study Per-Protocol, 1 g, Day 28, p=0.027) was “statistically significant decreases”. The “Picture Recognition Sensitivity Index, LS mean difference vs placebo” value (Study Per-Protocol, 1 g, Day 28 at AM 2, p=0.020) was “statistically significant decreases”, the “Picture Recognition Sensitivity Index, LS mean difference vs placebo” value (Study Per-Protocol, 1 g, Day 28 at PM 2, p=0.026) was “statistically significant decreases” and the “Immediate Word Recall Accuracy, LS mean difference to placebo” value (Study Per-Protocol, 1 g, at AM 1, p=0.038) was “statistically significant decreases”. For the same compound, the “Immediate Word Recall Accuracy, LS mean difference to placebo” value (Study Per-Protocol, 1 g, at AM 2, p=0.048) was “statistically significant decreases”, the “Quality … LS mean difference vs placebo” value (Study Per-Protocol, 1 g, p=0.043) was “statistically significant decreases” and the “Immediate Word Recall Accuracy, LS mean difference to placebo” value (Study Per-Protocol, 2 g, Day 28, p=0.017) was “statistically significant decreases”. For the same compound, the “Self-Rated Alertness, LS mean difference vs placebo” value (Study Per-Protocol, 2 g, Day 28, p=0.035) was “statistically significant decrease in ratings”, the “Immediate Word Recall Accuracy, LS mean difference to placebo” value (Study Per-Protocol, 2 g, Day 28 at AM 1, p=0.006) was “statistically significant decreases” and the “Self-Rated Alertness, LS mean difference vs placebo” value (Study Per-Protocol, 2 g, Day 28 at AM 2, p=0.033) was “statistically significant decrease in ratings”. The “Immediate Word Recall Accuracy, LS mean difference to placebo” value (Study Per-Protocol, 2 g, at AM 1, p=0.029) was “statistically significant decreases”, the “Quality … LS mean difference vs placebo” value (Study Per-Protocol, 2 g, p=0.036) was “statistically significant decreases” and the “Word Recognition Sensitivity Index, LS mean difference to placebo” value (Study Per-Protocol, 4 g, Day 42, p=0.038) was “statistically significant decreases”. For the same compound, the “Self-Rated Calmness, LS mean difference vs placebo” value (Study Per-Protocol, 4 g, Day 42 at PM 1, p=0.071) was “statistical trend for an increase in ratings”, the “Power of Attention, difference active treatment vs placebo” value (Study Per-Protocol, any time-point) was “no difference between active treatment and placebo” and the “Self-Rated Contentment, ANCOVA” value (Study Per-Protocol) was “statistically significant treatment by day interaction”. For the same compound, the “Choice Reaction Time, ANCOVA” value (Study Per-Protocol, p=0.013) was “statistically significant treatment by day interaction”, the “Spatial Working Memory Sensitivity Index, ANCOVA” value (Study Per-Protocol, p=0.014) was “statistically significant treatment by day interaction” and the “Quality of Working Memory, ANCOVA” value (Study Per-Protocol, p=0.021) was “statistically significant treatment by day interaction”. The “Continuity of Attention, post-hoc vs corresponding placebo” value (post-hoc) was “no general pattern of effects”, the “Quality of Working Memory and Numeric Working Memory Sensitivity Index, post-hoc vs corresponding placebo” value (post-hoc) was “only isolated improvements and declines in performance” and the “Self-Rated Calmness, post-hoc vs corresponding placebo” value (post-hoc) was “no differences between active treatment and placebo”. The “Self-rated Alertness and Self-rated Contentment, post-hoc vs corresponding placebo” value (post-hoc, 1 g, Days 14 and 28) was “decreases in ratings”, the “Choice Reaction Time, post-hoc vs corresponding placebo” value (post-hoc, 4 g, Day 42) was “superior to placebo at every time point” and the “Power of Attention, post-hoc vs corresponding placebo” value (post-hoc, 4 g, Day 42) was “overall benefit versus the corresponding placebo”. The “Spatial Working Memory Sensitivity Index, post-hoc vs corresponding placebo” value (post-hoc, 4 g, Day 42, Study PP Population) was “overall benefit”, the “Simple Reaction Time, post-hoc vs corresponding placebo” value (post-hoc, 4 g, PM 2 collapsed across days, several time-points Days 14 and 42) was “improvements in performance” and the “Choice Reaction Time, post-hoc vs corresponding placebo” value (post-hoc, 4 g, all study days) was “overall benefit versus corresponding placebo”. The “Quality of Episodic Secondary Memory and contributing subtasks, post-hoc vs corresponding placebo” value (post-hoc, explained by pre-existing group differences) was “a number of decreases” and the “Speed of Memory subtask measures, post-hoc vs corresponding placebo” value (post-hoc, mostly 1 g) was “some signs of improvement in performance”.
